The values below come from ChEMBL document CHEMBL5096183, “Contemporary advances of cyclic molecules proposed for inflammation” (Eur J Med Chem, 2021).

In assay [1] the test system is Rattus norvegicus. In words: Anti-inflammatory activity against Carrageenan-induced paw edema in Wistar rat at 5 mg/kg, po pretreated for 30 mins followed by carrageenan addition after 4 hrs by Plethysmometric analysis relative to control. In kind it is functional. The note with it: time 4.5 hrs.
The subject of assay [2] is Rattus norvegicus. Kind of assay: Anti-inflammatory activity against carrageenan-induced paw edema in rat.
Assay [3] deals with Rattus norvegicus. In words: Anti-inflammatory activity against carrageenan-induced paw edema in rat relative to control. The format is functional.
Assay [4] concerns Rattus norvegicus. In words: Anti-inflammatory activity against carrageenan-induced paw edema in PO dosed Wistar albino rat measured after 2 hrs. In kind it is functional.
Assay [5] concerns Mus musculus. In words: Anti-inflammatory activity against Carrageenan-induced paw edema in Swiss albino mouse assessed as change in paw volume at 10 mg/kg, PO measured for 3 to 6 hrs by plethysmometric analysis relative to control. In kind it is functional. As to conditions: time 3-6 hrs.
For assay [6], the target named is Epidermal growth factor receptor (Homo sapiens, UniProt P00533). In words: Inhibition of recombinant EGFR (unknown origin) expressed in baculovirus incubated for 10 mins by europium-labeled antiphosphotyrosine/enhancement solution based assay.
Assay [7] is described as follows: Inhibition of mouse full-length GST-tagged BRAF V600E mutant incubated for 1 hrs.
Assay [8] deals with Rattus norvegicus. In words: Anti-inflammatory activity against formalin-induced foot paw edema in Wistar rat assessed as oedema inhibition at 10 mg/kg,po measured for 1 to 3 hrs by plethysmometric analysis relative to control. The format is functional. As to conditions: time 1-3 hrs.
Assay [9] has as its system Mus musculus. Kind of assay: Analgesic activity in hot plate induced thermal pain Swiss albino mouse model assessed as change in latency at 10 mg/kg, po measured at 1 to 2 hrs relative to control. As to conditions: time 1-2 hrs. The format is functional.
Assay [10] concerns the target T1, Prostaglandin G/H synthase 1 (Ovis aries, UniProt P05979).
T1 sequence (P05979 whole entry): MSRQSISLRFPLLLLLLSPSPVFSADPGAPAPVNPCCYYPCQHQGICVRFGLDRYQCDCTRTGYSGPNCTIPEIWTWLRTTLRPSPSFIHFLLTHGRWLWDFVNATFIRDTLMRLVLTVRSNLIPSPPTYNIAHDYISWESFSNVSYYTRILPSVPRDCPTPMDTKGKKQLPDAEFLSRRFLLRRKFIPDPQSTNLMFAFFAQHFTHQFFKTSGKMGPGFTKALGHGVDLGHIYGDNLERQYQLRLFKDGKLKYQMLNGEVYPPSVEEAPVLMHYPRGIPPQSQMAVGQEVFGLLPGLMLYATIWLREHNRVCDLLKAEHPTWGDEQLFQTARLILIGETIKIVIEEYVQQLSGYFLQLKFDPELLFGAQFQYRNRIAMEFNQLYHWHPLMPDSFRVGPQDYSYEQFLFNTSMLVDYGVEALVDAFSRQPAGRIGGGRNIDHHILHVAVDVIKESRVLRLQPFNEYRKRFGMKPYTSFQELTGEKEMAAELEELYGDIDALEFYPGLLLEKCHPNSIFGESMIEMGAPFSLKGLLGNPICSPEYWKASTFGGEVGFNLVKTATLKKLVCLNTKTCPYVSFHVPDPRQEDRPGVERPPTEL
In words: Inhibition of ovine COX-1 preincubated for 10 mins followed by arachidonic acid addition for 2 mins.

Assay [11] concerns the target T2, Prostaglandin G/H synthase 2 (Homo sapiens, UniProt P35354).
T2 sequence (P35354 whole entry): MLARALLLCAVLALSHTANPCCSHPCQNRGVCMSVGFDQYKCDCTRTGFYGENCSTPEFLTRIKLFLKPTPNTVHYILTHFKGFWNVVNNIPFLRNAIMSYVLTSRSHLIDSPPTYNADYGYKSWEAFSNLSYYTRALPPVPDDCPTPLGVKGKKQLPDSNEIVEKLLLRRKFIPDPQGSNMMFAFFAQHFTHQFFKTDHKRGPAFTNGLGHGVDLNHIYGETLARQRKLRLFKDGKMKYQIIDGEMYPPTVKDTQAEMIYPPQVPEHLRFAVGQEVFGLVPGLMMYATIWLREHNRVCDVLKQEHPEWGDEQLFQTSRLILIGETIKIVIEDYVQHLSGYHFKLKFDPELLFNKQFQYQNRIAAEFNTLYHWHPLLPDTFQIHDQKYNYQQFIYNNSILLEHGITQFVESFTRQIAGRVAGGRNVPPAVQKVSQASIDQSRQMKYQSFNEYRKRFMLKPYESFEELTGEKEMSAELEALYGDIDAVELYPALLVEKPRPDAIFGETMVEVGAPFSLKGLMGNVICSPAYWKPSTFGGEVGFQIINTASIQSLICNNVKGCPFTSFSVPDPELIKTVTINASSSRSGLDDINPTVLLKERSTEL
In words: Inhibition of human recombinant COX-2.

Epidermal growth factor receptor, sequence (P00533 whole entry): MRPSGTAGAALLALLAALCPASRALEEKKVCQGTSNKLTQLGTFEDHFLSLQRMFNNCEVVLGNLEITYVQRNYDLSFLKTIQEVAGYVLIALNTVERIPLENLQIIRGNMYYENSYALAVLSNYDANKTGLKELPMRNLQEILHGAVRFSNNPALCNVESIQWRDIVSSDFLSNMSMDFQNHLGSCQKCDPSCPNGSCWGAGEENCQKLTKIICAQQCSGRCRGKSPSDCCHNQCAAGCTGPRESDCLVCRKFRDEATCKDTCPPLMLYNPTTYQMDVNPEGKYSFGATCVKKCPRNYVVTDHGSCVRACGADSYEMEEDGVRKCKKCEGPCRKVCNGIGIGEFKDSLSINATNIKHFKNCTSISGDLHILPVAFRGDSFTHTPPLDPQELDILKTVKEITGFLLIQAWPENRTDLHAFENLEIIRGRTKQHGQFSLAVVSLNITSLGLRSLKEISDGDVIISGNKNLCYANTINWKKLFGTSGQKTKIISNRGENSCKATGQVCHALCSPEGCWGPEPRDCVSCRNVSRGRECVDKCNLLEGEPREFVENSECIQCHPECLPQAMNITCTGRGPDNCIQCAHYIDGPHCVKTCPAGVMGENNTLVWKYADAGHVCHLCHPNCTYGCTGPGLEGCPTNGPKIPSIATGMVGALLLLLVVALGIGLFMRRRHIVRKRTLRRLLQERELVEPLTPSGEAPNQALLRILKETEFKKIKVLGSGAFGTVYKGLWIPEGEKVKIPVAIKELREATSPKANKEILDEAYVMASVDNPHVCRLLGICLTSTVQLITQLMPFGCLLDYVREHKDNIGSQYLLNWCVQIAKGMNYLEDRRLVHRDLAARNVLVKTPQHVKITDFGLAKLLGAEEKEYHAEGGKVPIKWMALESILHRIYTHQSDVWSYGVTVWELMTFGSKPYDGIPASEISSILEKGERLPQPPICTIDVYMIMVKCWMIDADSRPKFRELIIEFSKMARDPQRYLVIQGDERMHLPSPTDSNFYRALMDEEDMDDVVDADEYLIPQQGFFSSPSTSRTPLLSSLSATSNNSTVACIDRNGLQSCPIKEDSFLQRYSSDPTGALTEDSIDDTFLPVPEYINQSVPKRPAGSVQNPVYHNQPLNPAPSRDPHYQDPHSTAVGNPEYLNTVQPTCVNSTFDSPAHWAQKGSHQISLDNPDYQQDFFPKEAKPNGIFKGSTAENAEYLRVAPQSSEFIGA

Regarding `COc1ccc(-c2cc(-c3ccccc3)nn2CC(=O)Nc2ccc(S(N)(=O)=O)cc2)cc1`, in the assay on Rattus norvegicus [1], the inhibition in vivo at 5 mg/kg stood at 81%.

Turning to `Cc1ccc(-c2cc(C(F)(F)F)nn2-c2ccc(S(N)(=O)=O)cc2)cc1` [CELECOXIB], the ED50 turned out to be 34.1 mg/kg with Rattus norvegicus [2] and 32 µmol/kg with Rattus norvegicus [4]. Further, the Activity in the assay with Rattus norvegicus [3] worked out at 83.4%; in the assay with Mus musculus [5], 32%.

In the case of `Cc1ccc(/C=N/NC(=O)CNc2nc(-c3ccccc3)c(-c3ccccc3)s2)cc1`, the results for the IC50 in assay [6] and in [7] were 200 nM and 1700 nM, respectively.

As for `COc1ccc(/C=C/C(=O)c2cccc(N3C(=O)c4ccccc4C3=O)c2)cc1OC`, the inhibition in vivo at 10 mg/kg in the assay with Rattus norvegicus [8] came out at 45%; with Mus musculus [9], 45.8%.

`CC1=NN(c2cccc(Cl)c2)C(=O)/C1=C\c1cn(-c2nc(N3CCOCC3)nc(N3CCOCC3)n2)c2ccccc12` came in with an IC50 in assay [10] of 20 µM.

For `COc1ccc(/C=C/C(=O)c2cc(-n3cc(CN4C(=O)C(=O)c5ccccc54)nn3)ccc2O)cc1`, in [11], the IC50 amounted to 37 nM.
